Literature values in patent publication US20060292214A1, “Nanoparticulate acetaminophen formulations” (Elan Pharma International Limited, priority 2005, published 2006).

solubility in water: practically insoluble in water
Structure (SMILES): CC(=O)Nc1ccc(O)cc1 [acetaminophen, 4′-hydroxyacetanilide]
